The structures appear in SMILES notation.

Sequence of human TRPA1 (O75762 whole entry, the tested form may be a part): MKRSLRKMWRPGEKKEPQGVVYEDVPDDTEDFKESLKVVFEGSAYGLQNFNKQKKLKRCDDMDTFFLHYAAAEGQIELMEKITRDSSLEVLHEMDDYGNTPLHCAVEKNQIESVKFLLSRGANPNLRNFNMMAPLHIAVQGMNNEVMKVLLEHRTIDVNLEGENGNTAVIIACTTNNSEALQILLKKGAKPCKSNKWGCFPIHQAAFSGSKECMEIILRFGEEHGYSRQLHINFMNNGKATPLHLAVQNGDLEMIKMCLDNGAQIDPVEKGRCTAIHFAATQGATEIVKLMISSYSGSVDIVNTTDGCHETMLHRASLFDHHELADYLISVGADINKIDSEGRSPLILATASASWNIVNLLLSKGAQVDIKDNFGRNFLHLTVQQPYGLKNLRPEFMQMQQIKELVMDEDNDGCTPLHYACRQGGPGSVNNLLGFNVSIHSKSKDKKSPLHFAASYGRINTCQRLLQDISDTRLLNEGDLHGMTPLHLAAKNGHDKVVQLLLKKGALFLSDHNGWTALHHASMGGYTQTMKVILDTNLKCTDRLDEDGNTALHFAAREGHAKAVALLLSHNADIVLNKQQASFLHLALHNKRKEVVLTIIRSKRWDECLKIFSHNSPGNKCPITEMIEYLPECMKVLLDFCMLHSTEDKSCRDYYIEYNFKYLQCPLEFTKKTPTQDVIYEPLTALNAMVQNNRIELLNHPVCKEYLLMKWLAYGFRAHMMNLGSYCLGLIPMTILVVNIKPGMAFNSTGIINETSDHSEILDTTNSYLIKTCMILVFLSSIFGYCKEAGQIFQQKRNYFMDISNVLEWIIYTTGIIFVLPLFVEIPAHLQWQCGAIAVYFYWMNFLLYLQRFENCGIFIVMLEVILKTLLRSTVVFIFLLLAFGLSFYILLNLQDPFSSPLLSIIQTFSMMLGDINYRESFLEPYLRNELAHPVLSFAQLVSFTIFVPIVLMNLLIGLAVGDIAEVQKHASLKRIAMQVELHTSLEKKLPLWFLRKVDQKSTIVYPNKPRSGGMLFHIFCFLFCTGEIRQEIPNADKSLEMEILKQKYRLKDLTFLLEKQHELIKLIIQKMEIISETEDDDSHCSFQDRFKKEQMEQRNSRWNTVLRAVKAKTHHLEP

This test deals with human TRPA1 (Homo sapiens (Human), UniProt O75762). The test is described as follows: In vitro inhibition of human TRPA1, whole cell patch configuration. In kind it is cell-based. Particulars: current activation 10 μM AITC, tested concentrations 320 pM to 3.2 μM, read-out: hTRPA1 IC50. The essentials:
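Compound antagonism measured from voltage ramps (±100 or ±80 mV, 400 ms, every 4 s from −40 mV), analysed at −80 and 80 mV, or at constant −60 mV. HEPES-buffered NaCl bath, pH 7.4, EGTA or 2 mM Ca2+; temperature set by perfusion, within ±2° C; no junction-potential correction.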
For orientation: IC50 means the concentration that inhibits the measured activity by half. With `CCC(=O)Cn1c(=O)c2c(ncn2[C@@H](C)C(=O)Nc2cccc(-c3cnc(OC)c(C(F)(F)F)c3)n2)n(C)c1=O` [Compound 124, (S)—N-(6′-methoxy-5′-(trifluoromethyl)-[2,3′-bipyridin]-6-yl)-2-(3-methyl-2,6-dioxo-1-(2-oxobutyl)-2,3-dihydro-1H-purin-7(6H)-yl)propanamide], the IC50 is 1 nM. The figure for `CCOc1ncc(-c2cccc(NC(=O)[C@H](C)n3cnc4c3c(=O)n(CC(=O)CC)c(=O)n4C)n2)cc1C(F)(F)F` [Compound 125, (S)—N-(6′-ethoxy-5′-(trifluoromethyl)-[2,3′-bipyridin]-6-yl)-2-(3-methyl-2,6-dioxo-1-(2-oxobutyl)-2,3-dihydro-1H-purin-7(6H)-yl)propanamide] is 1 nM; for `Cc1cc(Cn2c(=O)c3c(ncn3[C@@H](C)C(=O)Nc3cccc(-c4cnc(C)c(C(F)(F)F)c4)n3)n(C)c2=O)no1` [Compound 126, (S)-2-(3-methyl-1-((5-methylisoxazol-3-yl)methyl)-2,6-dioxo-2,3-dihydro-1H-purin-7(6H)-yl)-N-(6′-methyl-5′-(trifluoromethyl)-[2,3′-bipyridin]-6-yl)propanamide] it is 1 nM. For the molecule `Cc1cc(Cn2c(=O)c3c(ncn3[C@@H](C)C(=O)Nc3cccc(-c4cnc(C)c(C)c4)n3)n(C)c2=O)no1` [Compound 127, (S)—N-(5′,6′-dimethyl-[2,3′-bipyridin]-6-yl)-2-(3-methyl-1-((5-methylisoxazol-3-yl)methyl)-2,6-dioxo-2,3-dihydro-1H-purin-7(6H)-yl)propanamide], the 50% inhibitory concentration (IC50) amounted to 25 nM. The value for `Cc1cc(Cn2c(=O)c3c(ncn3[C@@H](C)C(=O)Nc3cncc(-c4cnc(C)c(C(F)(F)F)c4)n3)n(C)c2=O)no1` [Compound 128, (S)-2-(3-methyl-1-((5-methylisoxazol-3-yl)methyl)-2,6-dioxo-2,3-dihydro-1H-purin-7(6H)-yl)-N-(6-(6-methyl-5-(trifluoromethyl)pyridin-3-yl)pyrazin-2-yl)propanamide] was 4 nM; that for `Cc1cc(Cn2c(=O)c3c(ncn3[C@@H](C)C(=O)Nc3cccc(-c4cnc(C(F)(F)F)c(C)c4)n3)n(C)c2=O)no1` [Compound 129, (S)-2-(3-methyl-1-((5-methylisoxazol-3-yl)methyl)-2,6-dioxo-2,3-dihydro-1H-purin-7(6H)-yl)-N-(5′-methyl-6′-(trifluoromethyl)-[2,3′-bipyridin]-6-yl)propanamide] was 2 nM.

For `Cc1cc(Cn2c(=O)c3c(ncn3[C@@H](C)C(=O)Nc3cncc(-c4cnc(C(F)(F)F)c(C)c4)n3)n(C)c2=O)no1` [Compound 130, (S)-2-(3-methyl-1-((5-methylisoxazol-3-yl)methyl)-2,6-dioxo-2,3-dihydro-1H-purin-7(6H)-yl)-N-(6-(5-methyl-6-(trifluoromethyl)pyridin-3-yl)pyrazin-2-yl)propanamide], the IC50 was 8 nM.

Take `Cc1noc(Cn2c(=O)c3c(ncn3[C@@H](C)C(=O)Nc3cccc(-c4cnc(C(F)(F)F)c(C)c4)n3)n(C)c2=O)n1` [Compound 131, (S)-2-(3-methyl-1-((3-methyl-1,2,4-oxadiazol-5-yl)methyl)-2,6-dioxo-2,3-dihydro-1H-purin-7(6H)-yl)-N-(5′-methyl-6′-(trifluoromethyl)-[2,3′-bipyridin]-6-yl)propanamide]: the IC50 amounted to 6 nM. The value for `Cc1noc(Cn2c(=O)c3c(ncn3[C@@H](C)C(=O)Nc3cncc(-c4cnc(C)c(C(F)(F)F)c4)n3)n(C)c2=O)n1` [Compound 132, (S)-2-(3-methyl-1-((3-methyl-1,2,4-oxadiazol-5-yl)methyl)-2,6-dioxo-2,3-dihydro-1H-purin-7(6H)-yl)-N-(6-(6-methyl-5-(trifluoromethyl)pyridin-3-yl)pyrazin-2-yl)propanamide] was 9 nM. As to `Cc1noc(Cn2c(=O)c3c(ncn3[C@@H](C)C(=O)Nc3cncc(-c4cnc(C(F)(F)F)c(C)c4)n3)n(C)c2=O)n1` [Compound 133, (S)-2-(3-methyl-1-((3-methyl-1,2,4-oxadiazol-5-yl)methyl)-2,6-dioxo-2,3-dihydro-1H-purin-7(6H)-yl)-N-(6-(5-methyl-6-(trifluoromethyl)pyridin-3-yl)pyrazin-2-yl)propanamide], the IC50 was determined as 9 nM. The figure for `Cc1ncc(-c2cccc(NC(=O)[C@H](C)n3cnc4c3c(=O)n(Cc3ccon3)c(=O)n4C)n2)cc1C(F)(F)F` [Compound 136, (S)-2-(1-(isoxazol-3-ylmethyl)-3-methyl-2,6-dioxo-2,3-dihydro-1H-purin-7(6H)-yl)-N-(6′-methyl-5′-(trifluoromethyl)-[2,3′-bipyridin]-6-yl)propanamide] is 3 nM. The figure for `Cc1cc(-c2cncc(NC(=O)[C@H](C)n3cnc4c3c(=O)n(Cc3ccon3)c(=O)n4C)n2)cnc1C(F)(F)F` [Compound 137, (S)-2-(1-(isoxazol-3-ylmethyl)-3-methyl-2,6-dioxo-2,3-dihydro-1H-purin-7(6H)-yl)-N-(6-(5-methyl-6-(trifluoromethyl)pyridin-3-yl)pyrazin-2-yl)propanamide] is 13 nM.

In the case of `Cc1cc(Cn2c(=O)c3c(ncn3[C@@H](C)C(=O)Nc3cncc(-c4cnc(C)c(Cl)c4)n3)n(C)c2=O)no1` [Compound 139, (S)—N-(6-(5-chloro-6-methylpyridin-3-yl)pyrazin-2-yl)-2-(3-methyl-1-((5-methylisoxazol-3-yl)methyl)-2,6-dioxo-2,3-dihydro-1H-purin-7(6H)-yl)propanamide], the IC50 is 11 nM. Consider `CC(=O)Cn1c(=O)c2c(ncn2[C@@H](C)C(=O)Nc2cncc(-c3cnc(C)c(Cl)c3)n2)n(C)c1=O` [Compound 140, (S)—N-(6-(5-chloro-6-methylpyridin-3-yl)pyrazin-2-yl)-2-(3-methyl-2,6-dioxo-1(2-oxopropyl)-2,3-dihydro-1H-purin-7(6H)-yl)propanamide], for which the IC50 turned out to be 32 nM. The value for `CC(C(=O)Nc1ccnc(-c2cnc(C(F)(F)F)nc2)n1)n1cnc2c1c(=O)n(Cc1ccccn1)c(=O)n2C` (stereo not drawn) [Compound 141, 2-(3-methyl-2,6-dioxo-1-(pyridin-2-ylmethyl)-2,3-dihydro-1H-purin-7(6H)-yl)-N-(2′(trifluoromethyl)-2,5′-bipyrimidin-4-yl)propanamide] was 80 nM. As to `CC(=O)Cn1c(=O)c2c(ncn2[C@@H](C)C(=O)Nc2cccc(-c3cnc(N4CC5CC5C4)nc3)n2)n(C)c1=O` (stereo partly drawn) [Compound 142, (2S)—N-(6-(2-(3-azabicyclo[3.1.0]hexan-3-yl)pyrimidin-5-yl)pyridin-2-yl)-2-(3-methyl-2,6-dioxo-1-(2-oxopropyl)-2,3-dihydro-1H-purin-7(6H)-yl)propanamide], the IC50 was found to be 7 nM. The value for `CC(=O)Cn1c(=O)c2c(ncn2[C@@H](C)C(=O)Nc2ccnc(-c3cnc(N4CC5CC5C4)nc3)n2)n(C)c1=O` (stereo partly drawn) [Compound 143, (2S)—N-(2′-(3-azabicyclo[3.1.0]hexan-3-yl)-2,5′-bipyrimidin-4-yl)-2-(3-methyl-2,6-dioxo-1-(2-oxopropyl)-2,3-dihydro-1H-purin-7(6H)-yl)propanamide] was 20 nM; that for `CC#CCn1c(=O)c2c(ncn2[C@@H](C)C(=O)Nc2csc(-c3cnc(N4CC5CC5C4)nc3)n2)n(C)c1=O` (stereo partly drawn) [Compound 145, (2S)—N-(2-(2-(3-azabicyclo[3.1.0]hexan-3-yl)pyrimidin-5-yl)thiazol-4-yl)-2-(1-(but-2-ynyl)-3-methyl-2,6-dioxo-2,3-dihydro-1H-purin-7(6H)-yl)propanamide] was 2 nM.
